{"source": "ChEMBL document CHEMBL5104178", "about": "“Nitroimidazopyrazinones with Oral Activity against Tuberculosis and Chagas Disease in Mouse Models of Infection” (J Med Chem, 2022)", "key": {"[1]": {"experiment": "Solubility of compound in water by LC-UV analysis", "assay_type": "physicochemical", "conditions": "water; read-out: solubility"}, "[2]": {"experiment": "Solubility of compound in PBS at 7.4 by LC-UV analysis", "assay_type": "physicochemical", "conditions": "pH 7.4"}, "[3]": {"tested_on": "Mycobacterium tuberculosis", "experiment": "Antimycobacterial activity against Mycobacterium tuberculosis H37Rv ATCC 27294 assessed as bacterial growth inhibition incubated for 5 days under hypoxic condition by resazurin microtiter assay", "assay_type": "functional", "conditions": "H37Rv ATCC 27294, 120 h, time 5 day"}, "[4]": {"tested_on": "Mycobacterium tuberculosis", "experiment": "Antimycobacterial activity against Mycobacterium tuberculosis H37Rv ATCC 27294 assessed as bacterial growth inhibition incubated for 5 days under normoxic condition by resazurin microtiter assay", "assay_type": "functional", "conditions": "H37Rv ATCC 27294, 120 h, time 5 day"}, "[5]": {"tested_on": "Mycobacterium tuberculosis", "experiment": "Substrate activity at Mycobacterium tuberculosis Ddn expressed in Escherichia coli BL21 (DE3) assessed as oxidation of F420H2 by measuring Km by spectrophotometric analysis"}, "[6]": {"tested_on": "Mycobacterium tuberculosis", "experiment": "Substrate activity at Mycobacterium tuberculosis Ddn expressed in Escherichia coli BL21 (DE3) assessed as oxidation of F420H2 by measuring Kcat by spectrophotometric analysis"}, "[7]": {"tested_on": "Mycobacterium tuberculosis", "experiment": "Substrate activity at Mycobacterium tuberculosis Ddn expressed in Escherichia coli BL21 (DE3) assessed as oxidation of F420H2 by measuring Kcat/Km by spectrophotometric analysis"}, "[8]": {"tested_on": "Mycobacterium tuberculosis", "experiment": "Antimycobacterial activity against Mycobacterium tuberculosis H37Rv ATCC 27294 assessed as bacterial growth inhibition at 4 to 32 ug/ml incubated for 5 days under hypoxic condition by resazurin microtiter assay relative to control", "assay_type": "functional", "conditions": "dose 4-32 µg/ml; time 5 day"}, "[9]": {"experiment": "Selectivity index, ratio of CC50 for cytotoxicity against mouse 3T3 cells to IC50 for antitrypanosomal activity against Trypanosoma cruzi Tulahuen amastigotes infected in mouse 3T3 cells", "assay_type": "toxicity, cell-based", "conditions": "read-out: Ratio CC50/IC50"}, "[10]": {"experiment": "Cytotoxicity against mouse 3T3 cells", "assay_type": "toxicity, cell-based", "conditions": "NIH3T3 cells"}, "[11]": {"tested_on": "Trypanosoma cruzi", "experiment": "Antitrypanosomal activity against Trypanosoma cruzi Tulahuen amastigotes infected in mouse 3T3 cells assessed as inhibition of parasite growth incubated for 48 hrs by […] staining based analysis", "assay_type": "functional, organism-based"}, "[12]": {"tested_on": "Trypanosoma cruzi", "experiment": "Antitrypanosomal activity against Trypanosoma cruzi Tulahuen amastigotes infected in mouse 3T3 cells assessed as reduction in parasite growth at Emax concentration incubated for 48 hrs by […] staining based analysis", "assay_type": "functional", "set-up": "scale not given: the % may be the effect or the level left"}, "[13]": {"experiment": "Oral bioavailability in CD-1 mouse at 20 mg/kg administered as DMSO/PEG400 formulation measured upto 24 hrs by LC-MS/MS analysis", "assay_type": "ADME, organism-based", "conditions": "in vivo"}, "[14]": {"experiment": "Half life in CD-1 mouse at 20 mg/kg, po administered as DMSO/PEG400 formulation measured upto 24 hrs by LC-MS/MS analysis", "assay_type": "ADME, organism-based", "conditions": "in vivo"}, "[15]": {"experiment": "AUC(0 to 24 hrs) in CD-1 mouse at 20 mg/kg, po administered as DMSO/PEG400 formulation measured upto 24 hrs by LC-MS/MS analysis", "assay_type": "ADME, organism-based", "set-up": "dose 20 mg/kg, time < 24 hrs, route po", "conditions": "in vivo"}, "[16]": {"experiment": "Volume of distribution at steady state in CD-1 mouse at 5 mg/kg, iv administered as DMSO/PEG400 formulation measured upto 24 hrs by LC-MS/MS analysis", "assay_type": "ADME, organism-based", "conditions": "in vivo, read-out: Vdss"}, "[17]": {"experiment": "Tmax in CD-1 mouse at 20 mg/kg, po administered as DMSO/PEG400 formulation measured upto 24 hrs by LC-MS/MS analysis", "assay_type": "ADME, organism-based", "conditions": "in vivo"}, "[18]": {"experiment": "Cmax in CD-1 mouse at 20 mg/kg, po administered as DMSO/PEG400 formulation measured upto 24 hrs by LC-MS/MS analysis", "assay_type": "ADME, organism-based", "set-up": "dose 20 mg/kg, time < 24 hrs, route po", "conditions": "in vivo"}, "[19]": {"experiment": "Clearance in CD-1 mouse at 5 mg/kg, iv administered as DMSO/PEG400 formulation measured upto 24 hrs by LC-MS/MS analysis", "assay_type": "ADME, organism-based", "conditions": "in vivo"}, "[20]": {"experiment": "Half life in CD-1 mouse at 5 mg/kg, iv administered as DMSO/PEG400 formulation measured upto 24 hrs by LC-MS/MS analysis", "assay_type": "ADME, organism-based", "conditions": "in vivo"}, "[21]": {"tested_on": "Mycobacterium tuberculosis", "experiment": "Antimycobacterial activity against Mycobacterium tuberculosis H37Ra ATCC 25177 assessed as bacterial growth inhibition incubated for 6 days under normoxic condition by resazurin microtiter assay", "assay_type": "functional", "conditions": "H37Ra ATCC 25177, 144 h, time 6 day"}, "[22]": {"tested_on": "Mycobacterium avium", "experiment": "Antimycobacterial activity against Mycobacterium avium ATCC 25291 assessed as bacterial growth inhibition incubated for 6 days under normoxic condition by resazurin microtiter assay", "assay_type": "functional", "conditions": "ATCC 25291, 144 h, time 6 day"}, "[23]": {"tested_on": "Mycolicibacterium smegmatis", "experiment": "Antimycobacterial activity against Mycobacterium smegmatis mc2155 ATCC 700084 assessed as bacterial growth inhibition incubated for 24 hrs under normoxic condition by resazurin microtiter assay", "assay_type": "functional"}}}
{"smiles": "O=C1CCn2cc([N+](=O)[O-])nc2N1Cc1ccccc1", "values": [{"measurement": "solubility", "setting": "[1]", "value": 137, "unit": "µM"}, {"measurement": "solubility", "setting": "[2]", "value": 142, "unit": "µM"}, {"measurement": "MIC", "setting": "[3]", "value": "> 32", "unit": "µg/mL"}, {"measurement": "MIC", "setting": "[4]", "value": "> 32", "unit": "µg/mL"}]}
{"smiles": "O=c1c2nc([N+](=O)[O-])cn2ccn1Cc1cncc(-c2ccc(OC(F)(F)F)cc2)c1", "values": [{"measurement": "Km", "setting": "[5]", "value": 2.6, "unit": "µM"}, {"measurement": "kcat", "setting": "[6]", "value": "1.2 10^-2/s"}, {"measurement": "kcat/Km", "setting": "[7]", "value": 4470, "unit": "M⁻¹ s⁻¹"}, {"measurement": "inhibition (INH)", "setting": "[8]", "value": 82, "unit": "%"}]}
{"smiles": "CC[C@@H]([C@H](C)O)n1ncn(-c2ccc(N3CCN(c4ccc(OC[C@@H]5CO[C@@](Cn6cncn6)(c6ccc(F)cc6F)C5)cc4)CC3)cc2)c1=O", "note": "[POSACONAZOLE]", "values": [{"measurement": "selectivity ratio", "setting": "[9]", "value": "> 569"}, {"measurement": "CC50", "setting": "[10]", "value": "> 1000", "unit": "nM"}, {"measurement": "IC50", "setting": "[11]; NIH3T3, 48 h", "value": 2, "unit": "nM"}, {"measurement": "IC90", "setting": "[11]; NIH3T3, time 48 hrs", "value": 4, "unit": "nM"}, {"measurement": "Activity", "setting": "[12]", "value": 87, "unit": "%"}]}
{"smiles": "O=c1c2nc([N+](=O)[O-])cn2ccn1Cc1ccc(N2CCCCC2)cc1", "values": [{"measurement": "Km", "setting": "[5]", "value": 2.2, "unit": "µM"}, {"measurement": "kcat", "setting": "[6]", "value": "1.7 10^-3/s"}, {"measurement": "kcat/Km", "setting": "[7]", "value": 773, "unit": "M⁻¹ s⁻¹"}]}
{"smiles": "O=c1c2nc([N+](=O)[O-])cn2ccn1Cc1ccc(-c2ccc(OC(F)(F)F)cc2)cn1", "values": [{"measurement": "bioavailability", "setting": "[13]", "value": 45, "unit": "%"}, {"measurement": "half-life", "setting": "[14]", "value": 6.1, "unit": "h"}, {"measurement": "AUC(0-t) at 24 h", "setting": "[15]", "value": 45900, "unit": "ng·h/mL"}, {"measurement": "Vd", "setting": "[16]", "value": 1.3, "unit": "L/kg"}, {"measurement": "Tmax", "setting": "[17]", "value": 5.3, "unit": "h"}, {"measurement": "Cmax", "setting": "[18]", "value": 3600, "unit": "ng/mL"}, {"measurement": "clearance", "setting": "[19]", "value": 2.06, "unit": "mL/min/kg"}, {"measurement": "half-life", "setting": "[20]", "value": 7.2, "unit": "h"}]}
{"smiles": "Cc1nc(OCc2ccc(OC(F)(F)F)cc2)c2nc([N+](=O)[O-])cn2c1C", "values": [{"measurement": "MIC", "setting": "[21]", "value": "> 32", "unit": "µg/mL"}, {"measurement": "MIC", "setting": "[22]", "value": "> 32", "unit": "µg/mL"}, {"measurement": "Km", "setting": "[5]", "value": 30, "unit": "µM"}, {"measurement": "kcat", "setting": "[6]", "value": "7 10^-4/s"}, {"measurement": "kcat/Km", "setting": "[7]", "value": 24, "unit": "M⁻¹ s⁻¹"}, {"measurement": "MIC", "setting": "[3]", "value": "> 32", "unit": "µg/mL"}, {"measurement": "MIC", "setting": "[4]", "value": "> 32", "unit": "µg/mL"}, {"measurement": "MIC", "setting": "[23]", "value": "> 32", "unit": "µg/mL"}]}
{"smiles": "O=c1c2nc([N+](=O)[O-])cn2ccn1Cc1ccc(-c2cccc(OC(F)(F)F)c2)cc1", "values": [{"measurement": "Km", "setting": "[5]", "value": 8.4, "unit": "µM"}, {"measurement": "kcat", "setting": "[6]", "value": "3.1 10^-3/s"}, {"measurement": "kcat/Km", "setting": "[7]", "value": 370, "unit": "M⁻¹ s⁻¹"}]}
{"smiles": "Cc1ccc(Cn2ccn3cc([N+](=O)[O-])nc3c2=O)cc1", "values": [{"measurement": "Km", "setting": "[5]", "value": 2.5, "unit": "µM"}, {"measurement": "kcat", "setting": "[6]", "value": "4.3 10^-3/s"}, {"measurement": "kcat/Km", "setting": "[7]", "value": 1710, "unit": "M⁻¹ s⁻¹"}]}
{"smiles": "O=C(NCc1ccc(OC(F)(F)F)cc1)c1ncc([N+](=O)[O-])[nH]1", "values": [{"measurement": "Km", "setting": "[5]", "value": 31, "unit": "µM"}, {"measurement": "kcat", "setting": "[6]", "value": "2.1 10^-4/s"}, {"measurement": "kcat/Km", "setting": "[7]", "value": 6.9, "unit": "M⁻¹ s⁻¹"}]}
{"smiles": "Cc1c(C)n2cc([N+](=O)[O-])nc2c(=O)n1Cc1ccc(OC(F)(F)F)cc1", "values": [{"measurement": "MIC", "setting": "[22]", "value": "> 32", "unit": "µg/mL"}, {"measurement": "Km", "setting": "[5]", "value": 28, "unit": "µM"}, {"measurement": "kcat", "setting": "[6]", "value": "6.9 10^-3/s"}, {"measurement": "kcat/Km", "setting": "[7]", "value": 244, "unit": "M⁻¹ s⁻¹"}, {"measurement": "MIC", "setting": "[23]", "value": "> 32", "unit": "µg/mL"}]}
